Source: patent US9796741B2 (Achillion Pharmaceuticals, Inc., priority 2014, dated 2017)
pIC50: −log10 of the molar value.

What follows are molecules tested against Human factor D (Homo sapiens (Human), UniProt P00746) (assay: Human Factor D Assay). Details: not given.
Type: biochemical
Procedure: Human factor D (purified from human serum, Complement Technology, Inc.) at 80 nM final concentration is incubated with test compound at various concentrations for 5 minutes at room temperature in 50 mM Tris, 1M NaCl, pH 7.5. A synthetic substrate Z-L-Lys-SBzl and DTNB (Ellman's reagent) are added to final concentrations of 100 μM each. The increase in color is recorded at OD405 nm in a microplate in kinetic mode over 30 minutes with 30 second time points in a spectrofluorimeter. IC50 values are calculated by non-linear regression from the percentage of inhibition of complement factor D activity as a function of test compound concentration.

Sequence of Human factor D (P00746 26-253): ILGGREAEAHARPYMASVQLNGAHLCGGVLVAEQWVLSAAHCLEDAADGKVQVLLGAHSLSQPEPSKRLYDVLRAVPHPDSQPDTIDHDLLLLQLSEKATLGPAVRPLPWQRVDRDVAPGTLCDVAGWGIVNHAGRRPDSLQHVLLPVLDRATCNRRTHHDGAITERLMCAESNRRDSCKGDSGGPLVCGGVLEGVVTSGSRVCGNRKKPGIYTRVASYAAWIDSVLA

Work on `NC(=O)c1nn(CC(=O)N2C[C@H](F)C[C@H]2C(=O)NCc2ccccn2)c2ccc(-c3ccnnc3)cc12` [Compound 139, 1-(2-((2S,4R)-4-fluoro-2-(pyridin-2-ylmethylcarbamoyl)pyrrolidin-1-yl)-2-oxoethyl)-5-(pyridazin-4-yl)-1H-indazole-3-carboxamide] yielded a pIC50 of 5.00 to 6.00.

Same assay, conditions: human factor D 80 nM, substrate Z-L-Lys-SBzl, DTNB

`NC(=O)c1nn(CC(=O)N2C[C@H](F)C[C@H]2C(=O)Nc2c[nH]nc2-c2ccc(Cl)cc2Cl)c2ccc(-c3ccnnc3)cc12` [Compound 94, 1-(2-((2S,4R)-2-(3-(2,4-dichlorophenyl)-1H-pyrazol-4-ylcarbamoyl)-4-fluoropyrrolidin-1-yl)-2-oxoethyl)-5-(pyridazin-4-yl)-1H-indazole-3-carboxamide] and `NC(=O)c1nn(CC(=O)N2C[C@H](F)C[C@H]2C(=O)Nc2ccc3ccccc3c2)c2ccc(-c3ccnnc3)cc12` [Compound 131, 1-(2-((2S,4R)-4-fluoro-2-(naphthalen-2-ylcarbamoyl)pyrrolidin-1-yl)-2-oxoethyl)-5-(pyridazin-4-yl)-1H-indazole-3-carboxamide] cannot be ordered by pIC50: < 5.00 for the first, < 5.00 for the second.

`CC(=O)c1cn(CC(=O)N2C[C@H](F)C[C@H]2C(=O)Nc2cccc(-c3ccccc3Cl)c2F)c2ccc(N3CCN(c4ncccn4)CC3)cc12` [Compound 31, (2S,4R)-1-(2-(3-acetyl-5-(4-(pyrimidin-2-yl)piperazin-1-yl)-1H-indol-1-yl)acetyl)-N-(2′-chloro-2-fluorobiphenyl-3-yl)-4-fluoropyrrolidine-2-carboxamide] and `CC(=O)c1cn(CC(=O)N2C[C@H](F)C[C@H]2C(=O)Nc2cccc(-c3ccccc3Cl)c2F)c2ccc(N3CCN(c4ncc(F)cn4)CC3)cc12` [Compound 32, (2S,4R)-1-(2-(3-acetyl-5-(4-(5-fluoropyrimidin-2-yl)piperazin-1-yl)-1H-indol-1-yl)acetyl)-N-(2′-chloro-2-fluorobiphenyl-3-yl)-4-fluoropyrrolidine-2-carboxamide] cannot be ordered by pIC50: > 6.00 for the first, > 6.00 for the second.

`CC(=O)c1cn(CC(=O)N2C[C@H](F)C[C@H]2C(=O)N[C@@H]2CCC[C@H]2O)c2ccc(-c3ccnnc3)cc12` [Compound 143, (2S,4R)-1-(2-(3-acetyl-5-(pyridazin-4-yl)-1H-indol-1-yl)acetyl)-4-fluoro-N-((1R,2R)-2-hydroxycyclopentyl) pyrrolidine-2-carboxamide] and `NC(=O)c1nn(CC(=O)N2C[C@H](F)C[C@H]2C(=O)N[C@@H]2CCC[C@H]2O)c2ccc(-c3ccnnc3)cc12` [Compound 145, 1-(2-((2S,4R)-4-fluoro-2-((1R,2R)-2-hydroxycyclopentyl-carbamoyl)pyrrolidin-1-yl)-2-oxoethyl)-5-(pyridazin-4-yl)-1H-indazole-3-carboxamide] cannot be ordered by pIC50: < 5.00 for the first, < 5.00 for the second.

`CC(=O)c1cn(CC(=O)N2C[C@H](F)C[C@H]2C(=O)Nc2cccc(-c3ccccc3Cl)c2F)c2ccc(-c3cnc(C)nc3)cc12` [Compound 102, (2S,4R)-1-(2-(3-acetyl-5-(2-methylpyrimidin-5-yl)-1H-indol-1-yl)acetyl)-N-(2′-chloro-2-fluorobiphenyl-3-yl)-4-fluoropyrrolidine-2-carboxamide] and `COCCNc1ncc(-c2ccc3c(c2)c(C(C)=O)cn3CC(=O)N2C[C@H](F)C[C@H]2C(=O)Nc2cccc(-c3ccccc3Cl)c2F)cn1` [Compound 187, (2S,4R)-1-(2-(3-acetyl-5-(2-(2-methoxyethylamino)pyrimidin-5-yl)-1H-indol-1-yl)acetyl)-N-(2′-chloro-2-fluorobiphenyl-3-yl)-4-fluoropyrrolidine-2-carboxamide] cannot be ordered by pIC50: > 6.00 for the first, > 6.00 for the second.

`CC(=O)c1cn(CC(=O)N2[C@@H]3C[C@@H]3C[C@H]2C(=O)Nc2cccc(-c3ccccc3Cl)c2F)c2ccc(-c3cncnc3)cc12` [Compound 15, (1R,3S,5R)-2-(2-(3-acetyl-5-(pyrimidin-5-yl)-1H-indol-1-yl)acetyl)-N-(2′-chloro-2-fluorobiphenyl-3-yl)-2-azabicyclo[3.1.0] hexane-3-carboxamide] and `CC(=O)c1cn(CC(=O)N2C[C@H](F)C[C@H]2C(=O)Nc2cccc(-c3ccccc3Cl)c2F)c2ccc(-c3ccnnc3)cc12` [Compound 20, (2S,4R)-1-(2-(3-Acetyl-5-(pryridazin-4-yl)-1H-indol-1-yl)acetyl)-N-(2′-chloro-2-fluoro-[1,1′-biphenyl]-3-yl)-4-fluoropyrrolidine-2-carboxamide] cannot be ordered by pIC50: > 6.00 for the first, > 6.00 for the second.

`CC(=O)c1cn(CC(=O)N2C[C@H](F)C[C@H]2C(=O)Nc2cncc(Cl)n2)c2ccc(-c3ccnnc3)cc12` [Compound 88, (2S,4R)-1-(2-(3-acetyl-5-(pyridazin-4-yl)-1H-indol-1-yl)acetyl)-N-(6-chloropyrazin-2-yl)-4-fluoropyrrolidine-2-carboxamide] and `CC(=O)c1cn(CC(=O)N2C[C@H](F)C[C@H]2C(=O)Nc2cncc(Br)c2)c2ccc(-c3ccnnc3)cc12` [Compound 68, (2S,4R)-1-(2-(3-acetyl-5-(pyridazin-4-yl)-1H-indol-1-yl)acetyl)-N-(5-bromopyridin-3-yl)-4-fluoropyrrolidine-2-carboxamide] cannot be ordered by pIC50: > 6.00 for the first, > 6.00 for the second.

`COc1ncc(-c2ccc3c(c2)c(C(C)=O)cn3CC(=O)N2C[C@H](F)C[C@H]2C(=O)NCc2cccc(Cl)c2F)cn1` [Compound 136, (2S,4R)-1-(2-(3-acetyl-5-(2-methoxypyrimidin-5-yl)-1H-indol-1-yl)acetyl)-N-(3-chloro-2-fluorobenzyl)-4-fluoropyrrolidine-2-carboxamide] and `CC(=O)c1cn(CC(=O)N2C[C@H](F)C[C@H]2C(=O)Nc2cccc(Cl)n2)c2ccc(-c3cnc(C)nc3)cc12` [Compound 137, (2S,4R)-1-(2-(3-acetyl-5-(2-methylpyrimidin-5-yl)-1H-indol-1-yl)acetyl)-N-(6-chloropyridin-2-yl)-4-fluoropyrrolidine-2-carboxamide] cannot be ordered by pIC50: > 6.00 for the first, > 6.00 for the second.

`Cc1ncc(-c2ccc3c(c2)c(C(N)=O)nn3CC(=O)N2C[C@H](F)C[C@H]2C(=O)Nc2cccc(Br)n2)cn1` [Compound 101, 1-(2-((2S,4R)-2-(6-bromopyridin-2-ylcarbamoyl)-4-fluoropyrrolidin-1-yl)-2-oxoethyl)-5-(2-methylpyrimidin-5-yl)-1H-indazole-3-carboxamide] and `NC(=O)c1nn(CC(=O)N2C[C@H](F)C[C@H]2C(=O)Nc2cncc(Br)n2)c2ccc(-c3ccnnc3)cc12` [Compound 128, 1-(2-((2S,4R)-2-(6-bromopyrazin-2-ylcarbamoyl)-4-fluoropyrrolidin-1-yl)-2-oxoethyl)-5-(pyridazin-4-yl)-1H-indazole-3-carboxamide] cannot be ordered by pIC50: > 6.00 for the first, > 6.00 for the second.

Compared with `CC(=O)c1cn(CC(=O)N2C[C@H](F)C[C@H]2C(=O)Nc2ccc(CNC(=O)OCC3c4ccccc4-c4ccccc43)cc2)c2ccc(-c3ccnnc3)cc12` [Compound 61], `CC(=O)c1cn(CC(=O)N2C[C@H](F)C[C@H]2C(=O)NCc2cccc(Cl)c2)c2ccc(-c3ccnnc3)cc12` [Compound 44, (2S,4R)-1-(2-(3-acetyl-5-(pyridazin-4-yl)-1H-indol-1-yl)acetyl)-N-(3-chlorobenzyl)-4-fluoropyrrolidine-2-carboxamide] is higher in pIC50: < 5.00 for the first, > 6.00 for the second. The second is the more potent here.

`NC(=O)c1nn(CC(=O)N2C[C@H](F)C[C@H]2C(=O)Nc2cccc(-c3ccccc3Cl)c2F)c2ccc(-c3cnc(N4CCCC4)nc3)cc12` [Compound 10] and `NC(=O)c1nn(CC(=O)N2[C@@H]3C[C@@H]3C[C@H]2C(=O)Nc2cccc(-c3ccccc3Cl)c2F)c2ccc(-c3ncccn3)cc12` [Compound 7, 1-(2-((1R,3S,5R)-3-(2′-chloro-2-fluorobiphenyl-3-ylcarbamoyl)-2-azabicyclo[3.1.0]hexan-2-yl)-2-oxoethyl)-5-(pyrimidin-2-yl)-1H-indazole-3-carboxamide] cannot be ordered by pIC50: > 6.00 for the first, > 6.00 for the second.

Going from `CC(=O)c1cn(CC(=O)N2C[C@H](F)C[C@H]2C(=O)Nc2cccc(Br)n2)c2ccc(-c3cccc(Cl)c3)cc12` [Compound 119, (2S,4R)-1-(2-(3-acetyl-5-(3-chlorophenyl)-1H-indol-1-yl)acetyl)-N-(6-bromopyridin-2-yl)-4-fluoropyrrolidine-2-carboxamide] to `CC(=O)c1cn(CC(=O)N2C[C@H](F)C[C@H]2C(=O)Nc2nc(-c3cccc(Cl)c3)ns2)c2ccc(-c3ccnnc3)cc12` [Compound 147, (2S,4R)-1-(2-(3-acetyl-5-(pyridazin-4-yl)-1H-indol-1-yl)acetyl)-N-(3-(3-chlorophenyl)-1,2,4-thiadiazol-5-yl)-4-fluoropyrrolidine-2-carboxamide], the pIC50 falls from > 6.00 to < 5.00.

First: CC(=O)c1cn(CC(=O)N2C[C@H](F)C[C@H]2C(=O)Nc2cc(C)nc3nc(C(F)(F)F)nn23)c2ccc(-c3ccnnc3)cc12 [Compound 97, (2S,4R)-1-(2-(3-acetyl-5-(pyridazin-4-yl)-1H-indol-1-yl)acetyl)-4-fluoro-N-(5-methyl-2-(trifluoromethyl)-[1,2,4]triazolo[1,5-a]pyrimidin-7-yl)pyrrolidine-2-carboxamide]
Second: CC(=O)c1cn(CC(=O)N2C[C@H](F)C[C@H]2C(=O)Nc2ccc3c(c2)OC(C)(C)C3)c2ccc(-c3ccnnc3)cc12 [Compound 75, (2S,4R)-1-(2-(3-acetyl-5-(pyridazin-4-yl)-1H-indol-1-yl)acetyl)-N-(2,2-dimethyl-2,3-dihydrobenzofuran-6-yl)-4-fluoropyrrolidine-2-carboxamide]
The pIC50 of the first is lower: < 5.00 for the first, > 6.00 for the second.

In the case of `NC(=O)c1nn(CC(=O)N2C[C@H](F)C[C@H]2C(=O)Nc2noc3cc(C(F)(F)F)ccc23)c2ccc(-c3ccnnc3)cc12` [Compound 112, 1-(2-((2S,4R)-4-fluoro-2-(6-(trifluoromethyl)benzo[d]isoxazol-3-ylcarbamoyl)pyrrolidin-1-yl)-2-oxoethyl)-5-(pyridazin-4-yl)-1H-indazole-3-carboxamide], the pIC50 was < 5.00.
